From the supplement of paper PMC10307832

Assays:
Assay in all cases: relative viability (nuclei count vs DMSO), 5 days (fraction); higher = more cells survive
AGI-6780 + Vorinostat = compound: O=C(Nc1cccc(C(F)(F)F)c1)Nc1cc(S(=O)(=O)NC2CC2)ccc1-c1ccsc1 [AGI-6780] + O=C(CCCCCCC(=O)Nc1ccccc1)NO [Vorinostat] (partner 1 µM)
Procedure, shortened: (§1)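 Relative viability was taken as the ratio of nuclei in treated wells to nuclei in vehicle wells. Lung cancer cell lines in 1536-well plates received compounds by pin tool one day after seeding, either one drug alone or a fixed anchor-drug dose plus five library-drug doses (not always all listed) in √10 steps. Nuclei were counted on 4× images after 5 days of treatment, and values are medians of duplicate plates.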

AGI-6780 + Navitoclax = compound: O=C(Nc1cccc(C(F)(F)F)c1)Nc1cc(S(=O)(=O)NC2CC2)ccc1-c1ccsc1 [AGI-6780] + CC1(C)CCC(c2ccc(Cl)cc2)=C(CN2CCN(c3ccc(C(=O)NS(=O)(=O)c4ccc(N[C@H](CCN5CCOCC5)CSc5ccccc5)c(S(=O)(=O)C(F)(F)F)c4)cc3)CC2)C1 [Navitoclax] (partner 0.5 µM)
Procedure, shortened: as §1

AGI-6780 + Crizotinib = compound: O=C(Nc1cccc(C(F)(F)F)c1)Nc1cc(S(=O)(=O)NC2CC2)ccc1-c1ccsc1 [AGI-6780] + C[C@@H](Oc1cc(-c2cnn(C3CCNCC3)c2)cnc1N)c1c(Cl)ccc(F)c1Cl [Crizotinib] (partner 1 µM)
Procedure, shortened: as §1

AGI-6780 + Dasatinib = compound: O=C(Nc1cccc(C(F)(F)F)c1)Nc1cc(S(=O)(=O)NC2CC2)ccc1-c1ccsc1 [AGI-6780] + Cc1nc(Nc2ncc(C(=O)Nc3c(C)cccc3Cl)s2)cc(N2CCN(CCO)CC2)n1 [Dasatinib] (partner 0.075 µM)
Procedure, shortened: as §1

Row | Cell Line | relative viability (AGI-6780 + Vorinostat; first compound 0.08 µM) | relative viability (AGI-6780 + Vorinostat; first compound 0.253 µM) | relative viability (AGI-6780 + Vorinostat; first compound 0.8 µM) | relative viability (AGI-6780 + Vorinostat; first compound 2.53 µM) | relative viability (AGI-6780 + Vorinostat; first compound 8 µM) | relative viability (AGI-6780 + Navitoclax; first compound 0.08 µM) | relative viability (AGI-6780 + Navitoclax; first compound 0.253 µM) | relative viability (AGI-6780 + Navitoclax; first compound 0.8 µM) | relative viability (AGI-6780 + Navitoclax; first compound 2.53 µM) | relative viability (AGI-6780 + Navitoclax; first compound 8 µM) | relative viability (AGI-6780 + Crizotinib; first compound 0.08 µM) | relative viability (AGI-6780 + Crizotinib; first compound 0.253 µM) | relative viability (AGI-6780 + Crizotinib; first compound 0.8 µM) | relative viability (AGI-6780 + Crizotinib; first compound 2.53 µM) | relative viability (AGI-6780 + Crizotinib; first compound 8 µM) | relative viability (AGI-6780 + Dasatinib; first compound 0.08 µM) | relative viability (AGI-6780 + Dasatinib; first compound 0.253 µM) | relative viability (AGI-6780 + Dasatinib; first compound 0.8 µM) | relative viability (AGI-6780 + Dasatinib; first compound 2.53 µM) | relative viability (AGI-6780 + Dasatinib; first compound 8 µM)
1 | ChaGo-K-1 | 0.727 | 0.787 | 0.745 | 0.63 | 0.825 | 0.894 | 1.25 | 1.15 | 0.746 | 0.992 | 1.18 | 1.06 | 1.43 | 0.959 | 1.14 | 0.612 | 0.543 | 0.576 | 0.524 | 0.642
2 | LK-2 | 0.334 | 0.286 | 0.347 | 0.259 | 0.567 | 0.891 | 0.844 | 1.01 | – | 1.11 | 0.262 | 0.209 | 0.271 | – | 0.211 | 0.242 | 0.298 | 0.286 | – | 0.315
3 | NCI-H2009 | 0.754 | 0.712 | 0.693 | 0.707 | 0.628 | 1.2 | 1.12 | 1.19 | 1.16 | 1.16 | 1.02 | 1.09 | 0.976 | 1.01 | 1.05 | 0.27 | 0.309 | 0.258 | 0.312 | 0.32
4 | PC-3 [JPC-3] | – | 0.866 | 1.08 | 0.967 | 0.731 | 0.898 | 0.872 | 0.77 | 0.752 | 0.774 | 1.01 | 0.928 | 0.971 | 0.994 | 0.977 | 0.992 | 0.974 | 0.944 | 0.922 | 0.923
5 | NCI-H2170 | 0.882 | 0.996 | 0.835 | – | 0.833 | 0.595 | 0.54 | 0.674 | – | 0.564 | 1.28 | 1.14 | 1.36 | – | 1.24 | 0.585 | 0.713 | 0.579 | 0.499 | 0.59
6 | LCLC-97TM1 | 0.739 | 0.886 | 0.785 | 0.572 | 0.598 | 0.503 | 0.702 | 0.642 | – | 0.431 | 0.417 | 0.48 | 0.668 | – | 0.344 | 0.881 | 0.887 | 0.868 | 0.654 | 0.817
7 | NCI-H460 | 0.787 | 0.678 | 0.779 | 0.658 | 0.659 | 1.14 | 1.03 | 1.04 | 1.14 | 1.14 | 0.912 | 0.963 | 1.19 | 0.759 | 1.06 | 0.495 | 0.583 | 0.468 | 0.444 | 0.541
8 | UMC-11 | 0.407 | 0.426 | 0.447 | – | 0.434 | 0.318 | 0.372 | 0.348 | – | 0.399 | 0.754 | 0.606 | 0.676 | – | 0.751 | 0.474 | 0.524 | 0.662 | – | 0.488
9 | BEN | 0.62 | 0.539 | 0.692 | – | 0.629 | 0.0592 | 0.0703 | 0.0549 | – | 0.0845 | 0.891 | 0.738 | 0.955 | – | 0.966 | 0.219 | 0.348 | 0.291 | 0.3 | 0.377
10 | NCI-H1651 | 0.481 | 0.568 | 0.509 | 0.545 | 0.661 | 1.04 | 1.13 | 1.01 | 0.912 | 0.906 | 0.821 | 0.902 | 0.898 | 0.878 | 0.879 | 0.361 | 0.534 | 0.528 | 0.341 | 0.544
11 | SW 1573 | 0.792 | 0.75 | 0.999 | – | 0.972 | 1.21 | 1.07 | 1.14 | 0.973 | 1.14 | 0.786 | 0.883 | 0.912 | 0.681 | 0.815 | 0.467 | 0.516 | 0.442 | – | 0.531
12 | NCI-H1975 | 0.711 | 0.742 | 0.66 | 0.697 | 0.694 | 1.15 | 1 | 1.1 | 1.02 | 1.03 | 1.07 | 1.05 | 0.965 | 1.02 | 0.876 | 0.388 | 0.345 | 0.395 | – | 0.312
13 | LC-2-ad | 0.754 | 0.72 | 0.776 | 0.661 | 0.726 | 0.552 | 0.468 | 0.505 | 0.249 | 0.659 | 0.579 | 0.491 | 0.467 | 0.412 | 0.508 | 0.604 | 0.573 | 0.677 | 0.482 | 0.515
14 | NCI-H2023 | 0.705 | 0.818 | 0.781 | 0.541 | 0.648 | 1 | 1.06 | 1.02 | 0.989 | 0.919 | 0.637 | 0.541 | 0.856 | 0.554 | 0.731 | 0.591 | 0.624 | 0.617 | 0.507 | 0.529
15 | NCI-H2228 | 0.641 | 0.597 | 0.592 | 0.502 | 0.537 | 0.753 | 1.04 | 0.675 | 0.856 | 1.08 | 0.492 | 0.584 | 0.453 | 0.368 | 0.512 | 0.528 | 0.555 | 0.468 | 0.381 | 0.545
16 | NCI-H1650 | 0.583 | 0.592 | 0.646 | 0.489 | 0.549 | 1.25 | 1.08 | 1.29 | 1.19 | 1.14 | 0.966 | 1.01 | 1.14 | 0.938 | 1.02 | 0.337 | 0.371 | 0.38 | 0.274 | 0.366
17 | HCC-78 | 0.527 | 0.411 | 0.577 | 0.432 | 0.389 | 0.845 | 0.789 | 0.9 | 0.779 | 0.801 | 0.378 | 0.337 | 0.422 | 0.353 | 0.343 | – | 0.388 | 0.433 | 0.364 | 0.351
